What is called pIC50 is the IC50 on a negative log10 scale, so that one unit is a factor of ten.

pIC50: −log10 of the molar value.

This experiment addresses T1, full length PDK1 (Homo sapiens, UniProt O15530).
T1 construct: Full-length human 3-Phosphoinositide Dependent protein Kinase-1; made in house; host or cells: baculovirus / Sf9 insect cells
T1 sequence (O15530 1-556): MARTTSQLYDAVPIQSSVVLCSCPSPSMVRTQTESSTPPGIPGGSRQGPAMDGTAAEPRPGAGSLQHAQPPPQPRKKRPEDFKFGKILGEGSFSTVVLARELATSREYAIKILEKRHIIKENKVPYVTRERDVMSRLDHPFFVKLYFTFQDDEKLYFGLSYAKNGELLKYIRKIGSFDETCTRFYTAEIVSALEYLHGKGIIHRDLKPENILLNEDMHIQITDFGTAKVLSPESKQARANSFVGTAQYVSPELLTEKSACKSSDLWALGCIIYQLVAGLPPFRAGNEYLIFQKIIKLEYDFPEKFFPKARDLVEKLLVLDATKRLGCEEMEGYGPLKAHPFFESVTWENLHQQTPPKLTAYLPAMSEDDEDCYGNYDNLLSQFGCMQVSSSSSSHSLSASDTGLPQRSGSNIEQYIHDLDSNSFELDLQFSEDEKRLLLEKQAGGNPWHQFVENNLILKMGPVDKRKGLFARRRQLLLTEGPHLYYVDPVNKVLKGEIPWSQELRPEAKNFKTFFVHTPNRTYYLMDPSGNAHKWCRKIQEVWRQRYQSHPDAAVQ
Kind of experiment: PDK1 enzyme assays (substrate phosphorylation: LEADseeker scintillation proximity, TR-FRET, PDKtide). It is filed as biochemical. The settings on record: in at least one experimental run, read-out: IC50 against full length PDK1. On the procedure:
Substrate phosphorylation assays are carried out as follows:
Biotinylated-hAKT1: Human AKT1 (containing amino acid residues 136-480, as annotated by National Center for Biotechnology Information (NCBI) accession number AAL55732.1, with a MetLysLysHis6 N-terminal addition) is purified to >90% from lysate of baculovirus expression by Nickel Chelating ProBond resin (InVitrogen), Q-Sepharose Fast Flow, and Superdex 200 size exclusion chromatography. Biotinylation is achieved using EZ-Link Sulfo-NHS-LC Biotin (Pierce). Samples, in 25 mM HEPES, pH 7.5, 200 mM NaCl, 2 mM DTT, and 30% glycerol are stored at −80C until use.
Full-length human 3-Phosphoinositide Dependent protein Kinase-1 (hPDK1; National Center for Biotechnology Information (NCBI) accession number AAH39158.1 with a MetGlyHis6 N-terminal addition) is purified from baculovirus expression in Sf9 cells. Purity of approximately 80% is achieved by the use of chelation chromatography (Ni-NTA Superflow) and desalting columns. Samples, in 25 mM HEPES, 150 mM NaCl, 2.5 mM DTT, 0.05% Triton, 30% glycerol, pH 8.0, are stored at −80° C. until use.
The 39 amino acid biotinylated-PDKtide peptide Seq. ID No. 1: (Biotin-Ahx-[…]) was custom synthesized by 21st Century Biochemicals. […] The concentration was confirmed by quantitative amino acid analysis.
Scintillation Proximity (LEADseeker) Kinase Assay of Purified hPDK1:
Assays are performed in 384-well microtiter plates (Greiner, Catalog No. 784075). The reaction volume (10 μl) contains, in final concentrations, 25 mM MOPS (pH 7.5), 10 mM MgCl2, 50 mM KCl, 0.1 mg/ml BSA, 1 μM ATP, 3 uCi/ml ^33PγATP, 5 mM DTT, 1 mM CHAPS or 0.05% Tween20, 0.35 μM AKT1 biotinylated protein, and 10 nM hPDK1.
Compounds, titrated in DMSO, are evaluated at eleven concentrations ranging from 50 μM to 2 μM. […] Reactions are stopped after 3 hours at room temperature by the addition of 50 mM EDTA, 5 mg/ml LEADseeker beads (GE Healthcare) in PBS (10 ul). Beads are allowed to settle overnight, and samples are imaged on Viewlux (PerkinElmer).
The data for compound concentration responses were plotted as % Inhibition, calculated with the data reduction formula 100*(1−[(U1−C2)/(C1−C2)]), versus concentration of compound, where
Data were fitted to the curve described by:
TR-FRET Kinase Assay of Purified hPDK1:
Assays are performed in 384-well microtiter plates (Greiner, Catalog No. 784076).
As previously described for the Scintillation Proximity protocol, hPDK1 is pre-incubated (30 minutes at room temperature) with compounds before initiating phosphorylation of AKT1 by addition of substrate to the hPDK1 and compound mix. Reactions are stopped after 4-6 hours at room temperature by the addition to final concentrations of 0.02 M EDTA, 0.0875 μM Streptavidin APC (PerkinElmer), 0.03 μM AKT1 (phospho T308) antibody (Abcam Inc.), 0.00375 μM Lance Eu-labeled anti rabbit IgG Antibody (PerkinElmer). Antibody binding reaches equilibrium in 30 minutes before signal is read on an EnVision™ 2103 Multilabel Reader (PerkinElmer). APC Signals are normalized to Europium signal. Data processing is the same as described for the Scintillation Proximity assay with the exception of the generation of the “C2” control by addition of buffer without hPDK1 to control wells at t=0 instead of EDTA.
Scintillation Proximity (LEADseeker) Kinase Assay of Purified hPDK1 using Biotinylated-PDKtide Peptide:
Assays are performed in 384-well microtiter plates (Greiner, Catalog No. 784075). The reaction volume (10 μl) contains, in final concentrations, 25 mM MOPS (pH 7.5), 10 mM MgCl2, 50 mM KCl, 0.1 mg/ml BSA, 1 μM ATP, 3 uCi/ml ^33PγATP, 5 mM DTT, 0.5 mM CHAPS, 1 μM biotinylated-PDKtide peptide, and 0.5 nM hPDK1.
Compounds, titrated in DMSO, are evaluated at eleven concentrations ranging from 25 μM to 0.4 pM. […] Reactions are stopped after 4 hours at room temperature by the addition of 50 mM EDTA, 5 mg/ml LEADseeker beads (GE Healthcare) in PBS (10 ul).
On the technique in general: SPA uses beads or plates that emit light when radiolabelled molecules are held near them.
Take `Nc1nc(NCc2ccccc2)cc(-c2ccc3c(N)n[nH]c3c2)n1` [Example 2, 6-(3-Amino-1H-indazol-6-yl)-N^4-(phenylmethyl)-2,4-pyrimidinediamine]: the pIC50 was more than 7.00.
Under `Nc1nc(NCC2CCCCC2)cc(-c2ccc3c(N)n[nH]c3c2)n1` [Example 38, 6-(3-Amino-1H-indazol-6-yl)-N^4-(cyclohexylmethyl)-2,4-pyrimidinediamine] stands more than 7.00; under `CC[C@@H]1CCCN1c1cc(-c2ccc3c(N)n[nH]c3c2)nc(N)n1` [Example 46, 6-{2-Amino-6-[(2R)-2-ethyl-1-pyrrolidinyl]-4-pyrimidinyl}-1H-indazol-3-amine], more than 6.82.
Next, `Nc1nc(NC2CC2)cc(-c2ccc3c(N)n[nH]c3c2)n1` [Example 51, 6-(3-Amino-1H-indazol-6-yl)-N^4-cyclopropyl-2,4-pyrimidinediamine]: more than 7.00.
Next, `CCCNc1cc(-c2ccc3c(N)n[nH]c3c2)nc(N)n1` [Example 74, 6-(3-Amino-1H-indazol-6-yl)-N^4-propyl-2,4-pyrimidinediamine]: more than 7.00.
As for `CNc1nc(-c2ccc3c(N)n[nH]c3c2)cc(N2C[C@@H](C(=O)NCc3ccccc3)CC[C@H]2C)n1` [Example 80, (3S,6R)-1-[6-(3-Amino-1H-indazol-6-yl)-2-(methylamino)-4-pyrimidinyl]-6-methyl-N-(phenylmethyl)-3-piperidinecarboxamide], the pIC50 was more than 7.70.
Take `CNc1nc(-c2cc(F)c3c(N)n[nH]c3c2)cc(N2C[C@@H](C(=O)NC3CCCCC3)CC[C@H]2C)n1` [Example 85, (3S,6R)-1-[6-(3-Amino-4-fluoro-1H-indazol-6-yl)-2-(methylamino)-4-pyrimidinyl]-N-cyclohexyl-6-methyl-3-piperidinecarboxamide]: the pIC50 is more than 7.70.
For `CC1CCC(NC(=O)OC2CCCC2)CN1c1cc(-c2ccc3c(N)n[nH]c3c2)nc(N)n1` (stereo not drawn) [Example 120, Cis-cyclopentyl{1-[2-amino-6-(3-amino-1H-indazol-6-yl)-4-pyrimidinyl]-6-methyl-3-piperidinyl}carbamate], the negative logarithm of the IC50 (pIC50) is more than 7.30.
Turning to `C[C@@H]1CC[C@H](C(=O)NC2CCCC2)CN1c1cc(-c2ccc3c(N)n[nH]c3c2)nc(N)n1` [Example 142, (3S,6R)-1-[2-amino-6-(3-amino-1H-indazol-6-yl)-4-pyrimidinyl]-N-cyclopentyl-6-methyl-3-piperidinecarboxamide], the pIC50 is more than 7.70.
Under `C[C@@H]1CC[C@H](C(=O)NCCc2ccccc2)CN1c1cc(-c2ccc3c(N)n[nH]c3c2)nc(N)n1` [Example 149, (3S,6R)-1-[2-Amino-6-(3-amino-1H-indazol-6-yl)-4-pyrimidinyl]-6-methyl-N-(2-phenylethyl)-3-piperidinecarboxamide] stands more than 7.70; under `CC[C@@H]1COCCN1c1cc(-c2cc(NC3CCCC3)c3c(N)n[nH]c3c2)nc(NC)n1` [Example 181, N^4-Cyclopentyl-6-[6-[(3R)-3-ethyl-4-morpholinyl]-2-(methylamino)-4-pyrimidinyl]-1H-indazole-3,4-diamine], more than 6.82; under `CCOc1cc(-c2cc(N3CCOC[C@H]3CC)nc(NC)n2)cc2[nH]nc(N)c12` [Example 184, 6-[6-[(3R)-3-Ethyl-4-morpholinyl]-2-(methylamino)-4-pyrimidinyl]-4-(ethyloxy)-1H-indazol-3-amine], more than 6.82.
Under `CCOc1cc(-c2cc(N3CCOC[C@H]3C(C)C)nc(N)n2)cc2[nH]nc(N)c12` [Example 199, 6-{2-Amino-6-[(3R)-3-(1-methylethyl)-4-morpholinyl]-4-pyrimidinyl}-4-(ethyloxy)-1H-indazol-3-amine] stands more than 6.82.
Under `COc1cc(-c2cc(N3CCOC[C@H]3C)nc(N)n2)cc2[nH]nc(N)c12` [Example 200, 6-{2-Amino-6-[(3R)-3-methyl-4-morpholinyl]-4-pyrimidinyl}-4-(methyloxy)-1H-indazol-3-amine] stands more than 6.82.
For the compound `CNc1nc(-c2cc(OC)c3c(N)n[nH]c3c2)cc(N2CCC[C@@H](NC(=O)OC(C)(C)C)C2)n1` [Example 203, 1,1-Dimethylethyl{(3R)-1-[6-[3-amino-4-(methyloxy)-1H-indazol-6-yl]-2-(methylamino)-4-pyrimidinyl]-3-piperidinyl}carbamate], the negative-log IC50 (pIC50) is more than 7.30.
Consider `Nc1nc(-c2ccc3c(N)n[nH]c3c2)cc(N2CCC[C@@H](NC(=O)OC3CCC3)C2)n1` [Example 209, Cyclobutyl{(3R)-1-[2-amino-6-(3-amino-1H-indazol-6-yl)-4-pyrimidinyl]-3-piperidinyl}carbamate], for which the pIC50 was more than 7.30.
With `Nc1nc(-c2ccc3c(N)n[nH]c3c2)cc(N2CCC[C@@H](N3CCOC3=O)C2)n1` [Example 211, 3-{(3R)-1-[2-Amino-6-(3-amino-1H-indazol-6-yl)-4-pyrimidinyl]-3-piperidinyl}-1,3-oxazolidin-2-one], the pIC50 was more than 7.30.
Under `CC(C)OC(=O)N[C@@H]1CCCN(c2cc(-c3ccc4c(N)n[nH]c4c3)nc(N)n2)C1` [Example 217, 1-Methylethyl{(3R)-1-[2-amino-6-(3-amino-1H-indazol-6-yl)-4-pyrimidinyl]-3-piperidinyl}carbamate] stands more than 7.30.

Values taken from US8697685B2, “Chemical compounds” (GlaxoSmithKline LLC, priority 2008, dated 2014).
